Key:
Assay type in all cases: functional
Conditions in all cases: read-out: DIZ
Aspergillus niger [1] = experiment: Antifungal activity against Aspergillus niger at 0.25 mol/L after 2 to 4 days by paper disc method
Aspergillus niger [2] = experiment: Antifungal activity against Aspergillus niger at 0.13 mol/L after 2 to 4 days by paper disc method
Aspergillus niger [3] = experiment: Antifungal activity against Aspergillus niger at 0.06 mol/L after 2 to 4 days by paper disc method
Aspergillus niger [4] = experiment: Antifungal activity against Aspergillus niger at 0.03 mol/L after 2 to 4 days by paper disc method
Penicillium citrinum [5] = experiment: Antifungal activity against Penicillium citrinum at 0.25 mol/L after 2 to 4 days by paper disc method
Penicillium citrinum [6] = experiment: Antifungal activity against Penicillium citrinum at 0.13 mol/L after 2 to 4 days by paper disc method
Penicillium citrinum [7] = experiment: Antifungal activity against Penicillium citrinum at 0.06 mol/L after 2 to 4 days by paper disc method
Penicillium citrinum [8] = experiment: Antifungal activity against Penicillium citrinum at 0.03 mol/L after 2 to 4 days by paper disc method
Escherichia coli [9] = experiment: Antibacterial activity against Escherichia coli at 0.25 mol/L after 12 to 24 hrs by paper disc method
Escherichia coli [10] = experiment: Antibacterial activity against Escherichia coli at 0.13 mol/L after 12 to 24 hrs by paper disc method
Escherichia coli [11] = experiment: Antibacterial activity against Escherichia coli at 0.06 mol/L after 12 to 24 hrs by paper disc method
Escherichia coli [12] = experiment: Antibacterial activity against Escherichia coli at 0.03 mol/L after 12 to 24 hrs by paper disc method
Staphylococcus aureus [13] = experiment: Antibacterial activity against Staphylococcus aureus at 0.25 mol/L after 12 to 24 hrs by paper disc method
Staphylococcus aureus [14] = experiment: Antibacterial activity against Staphylococcus aureus at 0.13 mol/L after 12 to 24 hrs by paper disc method
Staphylococcus aureus [15] = experiment: Antibacterial activity against Staphylococcus aureus at 0.06 mol/L after 12 to 24 hrs by paper disc method
Staphylococcus aureus [16] = experiment: Antibacterial activity against Staphylococcus aureus at 0.03 mol/L after 12 to 24 hrs by paper disc method

`O=C/C=C/c1ccccc1` [CINNAMALDEHYDE] showed a zone of inhibition at 250000 µM (Aspergillus niger [1]) of 26.7 mm, a zone of inhibition at 130000 µM (Aspergillus niger [2]) of 22.3 mm and a zone of inhibition at 60000 µM (Aspergillus niger [3]) of 16 mm. For the same molecule, the zone of inhibition at 30000 µM (Aspergillus niger [4]) was 8 mm, the zone of inhibition at 250000 µM (Penicillium citrinum [5]) was 29.7 mm and the zone of inhibition at 130000 µM (Penicillium citrinum [6]) was 28.7 mm. For the same molecule, the zone of inhibition at 60000 µM (Penicillium citrinum [7]) was 15 mm, the zone of inhibition at 30000 µM (Penicillium citrinum [8]) was 12.2 mm and the zone of inhibition at 250000 µM (Escherichia coli [9]) was 29.5 mm. The zone of inhibition at 130000 µM (Escherichia coli [10]) was 11 mm, the zone of inhibition at 60000 µM (Escherichia coli [11]) was 11 mm and the zone of inhibition at 30000 µM (Escherichia coli [12]) was 8 mm. The zone of inhibition at 250000 µM (Staphylococcus aureus [13]) was 10.5 mm, the zone of inhibition at 130000 µM (Staphylococcus aureus [14]) was 9 mm and the zone of inhibition at 60000 µM (Staphylococcus aureus [15]) was 8 mm. The zone of inhibition at 30000 µM (Staphylococcus aureus [16]) was 8 mm.

From ChEMBL document CHEMBL3751674, “Synthesis, antimicrobial activity of Schiff base compounds of cinnamaldehyde and amino acids” (2016)
